Test results from patent publication US20260363243A1 (priority 2022, published 2026).

Tested on: cucumber downy mildew
Experiment: Activity in vivo for inhibiting cucumber downy mildew (potting method, greenhouse)
Excerpt: The test and investigation method refers to a SOP-SC-1098 cucumber downy mildew potting method in the fungicide section of Standard operation Specification for testing biological Activity of pesticides written by Kang Zhuo and Gu Baogen.

| SMILES | Control effect (1.25 mg/L, Table 1) | Control effect (5 mg/L, Table 1) | Control effect (20 mg/L, Table 1) | Control effect (0.078 mg/L, re-screening, Table 2) | Control effect (0.312 mg/L, re-screening, Table 2) | Control effect (1.25 mg/L, re-screening, Table 2) |
| --- | --- | --- | --- | --- | --- | --- |
| CO/C=C/C(=O)N1CCC(c2nc(C3=NOC(c4c(F)cccc4F)C3)cs2)CC1 (stereo not drawn) [Compound I-1] | A (90%≤A≤100%) | A (90%≤A≤100%) | A (90%≤A≤100%) |  |  |  |
| CO/C=C(\F)C(=O)N1CCC(c2nc(C3=NOC(c4c(F)cccc4F)C3)cs2)CC1 (stereo not drawn) [Compound I-2] | B (75%≤B<90%) | B (75%≤B<90%) | A (90%≤A≤100%) |  |  |  |
| CO/C=C(\Cl)C(=O)N1CCC(c2nc(C3=NOC(c4c(F)cccc4F)C3)cs2)CC1 (stereo not drawn) [Compound I-3] | A (90%≤A≤100%) | A (90%≤A≤100%) | A (90%≤A≤100%) |  |  |  |
| CO/C=C(\Br)C(=O)N1CCC(c2nc(C3=NOC(c4c(F)cccc4F)C3)cs2)CC1 (stereo not drawn) [Compound I-4] | B (75%≤B<90%) | A (90%≤A≤100%) | A (90%≤A≤100%) |  |  |  |
| CO/C=C(\I)C(=O)N1CCC(c2nc(C3=NOC(c4c(F)cccc4F)C3)cs2)CC1 (stereo not drawn) [Compound I-5] | C (60%≤C<75%) | B (75%≤B<90%) | B (75%≤B<90%) |  |  |  |
| CO/C=C(\C#N)C(=O)N1CCC(c2nc(C3=NOC(c4c(F)cccc4F)C3)cs2)CC1 (stereo not drawn) [Compound I-6] |  |  | B (75%≤B<90%) |  |  |  |
| CO/C=C(\C)C(=O)N1CCC(c2nc(C3=NOC(c4c(F)cccc4F)C3)cs2)CC1 (stereo not drawn) [Compound I-7] |  | B (75%≤B<90%) | A (90%≤A≤100%) |  |  |  |
| CC/C(=C\OC)C(=O)N1CCC(c2nc(C3=NOC(c4c(F)cccc4F)C3)cs2)CC1 (stereo not drawn) [Compound I-8] | A (90%≤A≤100%) | A (90%≤A≤100%) | A (90%≤A≤100%) |  |  |  |
| CCC/C(=C\OC)C(=O)N1CCC(c2nc(C3=NOC(c4c(F)cccc4F)C3)cs2)CC1 (stereo not drawn) [Compound I-9] | A (90%≤A≤100%) | A (90%≤A≤100%) | A (90%≤A≤100%) |  |  |  |
| CO/C=C(/C(=O)N1CCC(c2nc(C3=NOC(c4c(F)cccc4F)C3)cs2)CC1)C(C)C (stereo not drawn) [Compound I-10] | A (90%≤A≤100%) | A (90%≤A≤100%) | A (90%≤A≤100%) |  |  |  |
| CO/C=C(/C(=O)N1CCC(c2nc(C3=NOC(c4c(F)cccc4F)C3)cs2)CC1)c1ccccc1C (stereo not drawn) [Compound I-11] |  |  | C (60%≤C<75%) |  |  |  |
| CO/C=C(/C(=O)N1CCC(c2nc(C3=NOC(c4c(F)cccc4F)C3)cs2)CC1)c1ccccc1 (stereo not drawn) [Compound I-12] |  | D (45%≤D<60%) | B (75%≤B<90%) |  |  |  |
| CO/C=C(/C(=O)N1CCC(c2nc(C3=NOC(c4c(F)cccc4F)C3)cs2)CC1)c1ccc(C)cc1 (stereo not drawn) [Compound I-13] |  | B (75%≤B<90%) | A (90%≤A≤100%) |  |  |  |
| CO/C=C(/C(=O)N1CCC(c2nc(C3=NOC(c4c(F)cccc4F)C3)cs2)CC1)c1cc(C)ccc1C (stereo not drawn) [Compound I-14] | A (90%≤A≤100%) | A (90%≤A≤100%) | A (90%≤A≤100%) |  |  |  |
| CO/C=C(/C(=O)N1CCC(c2nc(C3=NOC(c4c(F)cccc4F)C3)cs2)CC1)c1cc(Cl)ccc1Cl (stereo not drawn) [Compound I-15] |  | C (60%≤C<75%) | C (60%≤C<75%) |  |  |  |
| C=CC(=O)N1CCC(c2nc(C3=NOC(c4c(F)cccc4F)C3)cs2)CC1 (stereo not drawn) [Compound I-16] | D (45%≤D<60%) | C (60%≤C<75%) | B (75%≤B<90%) |  |  |  |
| CCO/C=C/C(=O)N1CCC(c2nc(C3=NOC(c4c(F)cccc4F)C3)cs2)CC1 (stereo not drawn) [Compound I-17] | A (90%≤A≤100%) | A (90%≤A≤100%) | A (90%≤A≤100%) |  |  |  |
| CO/N=C(/C(=O)N1CCC(c2nc(C3=NOC(c4c(F)cccc4F)C3)cs2)CC1)c1ccccc1 (stereo not drawn) [Compound I-18] |  |  | D (45%≤D<60%) |  |  |  |
| CO/N=C(/C(=O)N1CCC(c2nc(C3=NOC(c4c(F)cccc4F)C3)cs2)CC1)c1ccccc1C (stereo not drawn) [Compound I-19] | A (90%≤A≤100%) | A (90%≤A≤100%) | A (90%≤A≤100%) | B (75%≤B<90%) | A (90%≤A≤100%) | A (90%≤A≤100%) |
| CO/N=C(/C(=O)N1CCC(c2nc(C3=NOC(c4c(F)cccc4F)C3)cs2)CC1)c1cccc(C)c1 (stereo not drawn) [Compound I-20] |  |  | D (45%≤D<60%) |  |  |  |
